Measured values as given in paper PMC10428001 (Cancer research, 2022).
Where two headings read alike, the source gives them in different places.

Columns and labels:
[1] = system: Ba/F3 cells WT EGFR (+ rhEGF); test: Ba/F3 cell viability; format: cell-based; conditions: read-out: IC50 (average ± SD)
[2] = system: Ba/F3 cells HER2 A775_G776insYVMA; test: Ba/F3 cell viability; format: cell-based; conditions: read-out: IC50 (average ± SD)
[3] = system: Ba/F3 cells HER2 P780_Y781insGSP; test: Ba/F3 cell viability; format: cell-based; conditions: read-out: IC50 (average ± SD)
[4] = system: Ba/F3 cells HER2 G776delinsVC; test: Ba/F3 cell viability; format: cell-based; conditions: read-out: IC50 (average ± SD)
[5] = system: Ba/F3 cells HER2 M774delinsWLV; test: Ba/F3 cell viability; format: cell-based; conditions: read-out: IC50 (average ± SD)
Ba/F3 cells HER2 S310F = test: Ba/F3 cell viability; format: cell-based; conditions: read-out: IC50 (average ± SD)
Ba/F3 cells HER2 L755S = test: Ba/F3 cell viability; format: cell-based; conditions: read-out: IC50 (average ± SD)
Ba/F3 cells HER2 V777L = test: Ba/F3 cell viability; format: cell-based; conditions: read-out: IC50 (average ± SD)
Ba/F3 cells HER2 V862I = test: Ba/F3 cell viability; format: cell-based; conditions: read-out: IC50 (average ± SD)
[6] = system: Ba/F3 cells HER2 755_757LREdelinsRP; test: Ba/F3 cell viability; format: cell-based; conditions: Mus musculus, BaF3, 72 h, read-out: IC50 (average ± SD)
[7] = system: Ba/F3 cells HER2 amplification; test: Ba/F3 cell viability; format: cell-based; conditions: read-out: IC50 (average ± SD)
[8] = system: WT EGFR vs all HER2 mutants Ba/F3 cells; test: Selectivity index from Ba/F3 IC50 ratios; format: cell-based; conditions: average over HER2 mutants
MCF7 = test: Cancer cell viability; format: cell-based, human; conditions: Homo sapiens, MCF7, 72 h, read-out: IC50 (average ± SD)
H1781 = test: Cancer cell viability; format: cell-based, human; conditions: Homo sapiens, NCI-H1781, 72 h, read-out: IC50 (average ± SD)
H1819 = test: Cancer cell viability; format: cell-based; conditions: Homo sapiens, NCI-H1819, 72 h, read-out: IC50 (average ± SD)
Calu-3 = test: Cancer cell viability; format: cell-based; conditions: Homo sapiens, Calu-3, 72 h, read-out: IC50 (average ± SD)
DFCI 429 = test: Patient-derived cancer cell viability; format: cell-based, human; conditions: Homo sapiens, 72 h, read-out: IC50 (average ± SD)
BT-474 = test: Cancer cell viability; format: cell-based, human; conditions: Homo sapiens, BT-474, 72 h, read-out: IC50 (average ± SD)
SKBR3 = test: Cancer cell viability; format: cell-based, human; conditions: Homo sapiens, SK-BR-3, 72 h, read-out: IC50 (average ± SD)
NCI-N87 = test: Cancer cell viability; format: cell-based, human; conditions: Homo sapiens, NCI-N87, 72 h, read-out: IC50 (average ± SD)
Calu-3 tumors = test: Calu-3 xenograft efficacy; format: in vivo; conditions: Calu-3 in NCr nude mice, oral, 39 days; JBJ-08-178-01 at 50 mg/kg BID
A-431 = test: Cancer cell viability; format: cell-based, human; conditions: read-out: IC50 (average ± SD); A-431, epidermoid, EGFR amp, 72 h
HER2 mutant lung cancer = conditions: patients with HER2 mutant NSCLC, clinical trial ref 35; cited from earlier work

IC50 ([1]; Mus musculus, BaF3, 72 h) | IC50 ([2]; Mus musculus, BaF3, 72 h) | IC50 ([3]; Mus musculus, BaF3, 72 h) | IC50 ([4]; Mus musculus, BaF3, 72 h) | IC50 ([5]; Mus musculus, BaF3, 72 h) | IC50 (Ba/F3 cells HER2 S310F; Mus musculus, BaF3, 72 h) | IC50 (Ba/F3 cells HER2 L755S; Mus musculus, BaF3, 72 h) | IC50 (Ba/F3 cells HER2 V777L; Mus musculus, BaF3, 72 h) | IC50 (Ba/F3 cells HER2 V862I; Mus musculus, BaF3, 72 h) | IC50 [6] | IC50 ([7]; Mus musculus, BaF3, 72 h) | IC50 (MCF7) | IC50 (H1781) | IC50 (H1819) | IC50 (Calu-3) | IC50 (DFCI 429) | IC50 (BT-474) | IC50 (SKBR3) | IC50 (NCI-N87) | Compound | Selectivity index (IC50 ratio = WT EGFR ÷ all HER2 mutants) [8] | also measured
5180 ± 2520 nM | 269 ± 88.1 nM | 131 ± 37.3 nM | 97.8 ± 43.3 nM | 683 ± 288 nM | 371 ± 168 nM | 2090 ± 981 nM | 7.2 ± 0.57 nM | 1940 ± 1110 nM | 102 ± 23.6 nM | 126 ± 81.8 nM | 11.3 µM | 3910 nM | 521 ± 551 nM | 1900 nM | 2790 nM | 1730 nM | 840 ± 918 nM | 16.2 ± 2.4 nM | Cc1cc(Nc2ncnc3ccc(NC4=NC(C)(C)CO4)cc23)ccc1Oc1ccn2ncnc2c1 [tucatinib] | 8.91 | tumor growth (Calu-3 tumors): less efficacious than other covalent inhibitors
1.41 ± 0.56 nM | 1.05 ± 0.67 nM | 1.28 ± 1.12 nM | 1.17 ± 0.86 nM | 3.45 ± 2.45 nM | 73.5 ± 41.1 nM | 523 ± 440 nM | 2.43 ± 0.77 nM | 29.3 ± 43 nM | 0.95 ± 0.94 nM | 1.08 ± 1.04 nM | 5.94 µM | 197 ± 147 nM | 75.5 ± 28.8 nM | 4.7 ± 2 nM | 744 ± 747 nM | 368 ± 414 nM | 929 nM | 0.7 nM | C=CC(=O)N1CCC(Oc2cc3c(Nc4ccc(Cl)c(Cl)c4F)ncnc3cc2OC)CC1 [poziotinib] | – | IC50 (A-431): 59.9 ± 46.1 nM
– | – | – | – | – | – | – | – | – | – | – | – | – | – | – | – | – | – | – | C=CC(=O)N1CCC[C@@H](n2nc(C(=O)Nc3ccc(CC(=O)N(C)C)c(C)c3C)c3c(N)ncnc32)C1 [TAS0728] | 0.48 | IC50 ([1]; Ba/F3 WT EGFR (+ rhEGF 10 ng/mL), 3 days): 399 ± 77.3 nM; IC50 ([2]; Ba/F3 HER2 A775_G776insYVMA, 3 days): 256 ± 175 nM; IC50 ([3]; Ba/F3 HER2 P780_Y781insGSP, 3 days): 80.1 ± 27 nM; IC50 ([4]; Ba/F3 HER2 G776delinsVC, 3 days): 626 ± 130 nM; IC50 ([5]; Ba/F3 HER2 M774delinsWLV, 3 days): 894 ± 509 nM; IC50 (Ba/F3 cells HER2 S310F; Ba/F3 HER2 S310F, 3 days): 238 ± 95 nM; IC50 (Ba/F3 cells HER2 L755S; Ba/F3 HER2 L755S, 3 days): 3760 ± 3080 nM; IC50 (Ba/F3 cells HER2 V777L; Ba/F3 HER2 V777L, 3 days): 19.2 ± 12.2 nM; IC50 (Ba/F3 cells HER2 V862I; Ba/F3 HER2 V862I, 3 days): 1320 ± 506 nM; IC50 ([7]; Ba/F3 HER2 amplification, 3 days): 288 ± 20.6 nM

Compound | IC50 ([1]; Mus musculus, BaF3, 72 h) | IC50 ([2]; Mus musculus, BaF3, 72 h) | IC50 ([3]; Mus musculus, BaF3, 72 h) | IC50 ([4]; Mus musculus, BaF3, 72 h) | IC50 ([5]; Mus musculus, BaF3, 72 h) | IC50 (Ba/F3 cells HER2 S310F; Mus musculus, BaF3, 72 h) | IC50 (Ba/F3 cells HER2 L755S; Mus musculus, BaF3, 72 h) | IC50 (Ba/F3 cells HER2 V777L; Mus musculus, BaF3, 72 h) | IC50 (Ba/F3 cells HER2 V862I; Mus musculus, BaF3, 72 h) | IC50 [6] | IC50 ([7]; Mus musculus, BaF3, 72 h) | IC50 (MCF7) | IC50 (H1781) | IC50 (H1819) | IC50 (Calu-3) | IC50 (DFCI 429) | IC50 (BT-474) | IC50 (SKBR3) | IC50 (NCI-N87) | Selectivity index (IC50 ratio = WT EGFR ÷ all HER2 mutants) [8] | also measured
CCOc1cc2ncc(C#N)c(Nc3ccc(OCc4ccccn4)c(Cl)c3)c2cc1NC(=O)/C=C/CN(C)C [neratinib] | 13.5 ± 6.52 nM | 5.78 ± 2.09 nM | 4.96 ± 2.31 nM | 7.4 ± 4.64 nM | 16 ± 11.7 nM | 49.1 ± 64 nM | 112 ± 69.7 nM | 2.66 ± 0.48 nM | 8.64 ± 3.81 nM | 5.41 ± 4.54 nM | 5.64 ± 3.72 nM | 1.28 µM | 296 ± 331 nM | 50.8 ± 14.1 nM | 57.9 ± 39.6 nM | 51.9 ± 45.8 nM | 48 ± 10 nM | 68.4 ± 65.5 nM | 1.1 ± 0.1 nM | – | patients with objective response (HER2 mutant lung cancer): one out of 26
